Test results: patent US9611223B2, “3-aryl-5-substituted-isoquinolin-1-one compounds and their therapeutic use” (INSTITUTE OF CANCER RESEARCH: ROYAL CANCER HOSPITAL (THE), priority 2013, dated 2017)

Tests used:
HT55 cells = assay: Long-Term Clonogenic Assay (HT55 cells); format: cell-based; details: Homo sapiens, 12-14 days, read-out: cell inhibitory SF50 (HT55)
Description: Clonogenic Inhibition in DLD1 or HT55 Cells
In order to determine the efficacy of chronic dosing of putative TNKS inhibitors, long term clonogenic or ‘colony formation’ assays were carried out. This included the sparse seeding of cells in a 6-well dish followed by continuous dosing of cells over 12-14 days (depending on relative cell growth). Appropriate cell lines (DLD1 or HT55) were seeded at 500 cells/well in a 6-well dish in DMEM supplemented with FBS. After overnight incubation, cells were treated with the appropriate putative TNKS inhibitor at 10 μM, 3 μM, 1 μM, 0.30 μM, 0.1 μM and 0 μM at 0.2-1% final DMSO concentration (cell line dependent) in DMEM supplemented with 10% FBS (DLD1 cells were dosed in DMEM supplemented with 0.5% FBS). Dosages were carried out in triplicate. Cell media containing compound or DMSO only was replenished every 48 hours. On termination of the assay, plates were read with Cell Titre Glo reagent and luminescence measured on an appropriate plate reader.
The data was normalised to the DMSO control and was expressed as surviving fraction as a function of inhibitor dose. Dose response curves used to determine SF50 values were Log transformed and analysed by non-linear regression analysis (variable slope) using Prism (GraphPad Software, Inc).

Wnt signalling = assay: Wnt-Luciferase Reporter Assay; format: cell-based; details: DLD1-Wnt-Luc cells, 20-22 hours
Description: Wnt-Luciferase Reporter Assay
A Wnt dependent cell line (i.e., DLD1 colorectal adenocarcinoma cell line) was transduced with replication incompetent VSV-g pseudotyped lentiviral particles expressing the firefly luciferase gene under the control of minimal cytomegalovirus (mCMV) promoter and tandem repeats of the TCF/LEF transcriptional response element.
DLD1-Wnt-Luc cells were seeded (5000 cells/well) in a 96-well plate (Greiner Bio-One, cat. no. 655098) in Dubelco's Modified Eagle Medium (DMEM, SFBCO/Invitrogen, cat no. 41965-039) supplemented with Fetal Bovine Serum (FBS, 10%, SFBCO/Invitrogen, cat no. 10108-165). After overnight incubation, the media was replaced with OptiMEM (SFBCO/Invitrogen, cat no. 11058-021) supplemented with FBS (0.5%) and non-essential amino acids (1%, SFBCO/Invitrogen, cat no. 11140-035) and the appropriate putative TNKS inhibitor at a final concentration of 10 μM, 3 μM, 1 μM, 0.30 μM, 0.10 μM, 0.030 μM, 0.010 μM and 0 μM with 1% (v/v) final DMSO in double-triplicate wells. Positive control includes the use of XAV-939 (Maybridge, FisherScientific, 3,5,7,8-tetrahydro-2-[4-(trifluoromethyl)phenyl]-4H-thiopyrano[4,3-d]pyrimidin-4-one, cat. no. RF03920, see: Huang et al., Nature, 2009, Vol. 461, pp. 614-620). Cells were incubated for 20-22 hours before assaying for luciferase (first set of triplicates: Wnt activation) and viability (second set of triplicates: cell survival for data normalisation vs Wnt-activation) using ONE-Glo (Promega, cat. no. E6110) and CellTiter-Glo (Promega, cat. no. G7570) reagents consecutively. The assay was measured using a Victor^2 plate reader. The data were normalised to the DMSO control and were expressed as % Wnt activity as a function of inhibitor dose. Dose response curves used to determine IC50 values were Log transformed and analysed by non-linear regression analysis (variable slope) using Prism (GraphPad Software, Inc).

Row | Compound | IC50 (HT55 cells) [nM] | IC50 (Wnt signalling) [nM]
1 | CN(C)C1CCN(Cc2ccc(-c3cc4c(C#N)cccc4c(=O)[nH]3)cc2)CC1 [IQ-012] | < 5000 | < 300
2 | CN1CCN(Cc2ccc(-c3cc4c(C#N)cccc4c(=O)[nH]3)cc2)CC1 [IQ-002, 3-[4-(4-Methyl-piperazin-1-ylmethyl)-phenyl]-1-oxo-1,2-dihydro-isoquinoline-5-carbonitrile] | < 5000 | < 300
3 | CN1CCN(Cc2ccc(-c3cc4c(C#N)cc(F)cc4c(=O)[nH]3)cc2)CC1 [IQ-014] | < 5000 | < 300
4 | CN(C)C1CCN(Cc2ccc(-c3cc4c(C#N)cccc4c(=O)[nH]3)cc2)C1 (centres unmarked) [IQ-011] | < 5000 | < 300
